Experimental findings from US7214673B2, “Piperazine substituted aryl benzodiazepines and their use as dopamine receptor antagonists for the treatment of psychotic disorders” (Eli Lilly and Company, priority 2002, dated 2007) are described below.

The structures appear in SMILES notation. Structures can show the parent of a compound that is named as a salt. Bounds are passed on as bounds.

One data set deals with T1, Dopamine D2 receptor (Homo sapiens, UniProt P14416).
T1 construct: purchased Receptor Biology (now owned by NEN) RBHD2CM
T1 sequence (P14416 1-414 isoform P14416-2): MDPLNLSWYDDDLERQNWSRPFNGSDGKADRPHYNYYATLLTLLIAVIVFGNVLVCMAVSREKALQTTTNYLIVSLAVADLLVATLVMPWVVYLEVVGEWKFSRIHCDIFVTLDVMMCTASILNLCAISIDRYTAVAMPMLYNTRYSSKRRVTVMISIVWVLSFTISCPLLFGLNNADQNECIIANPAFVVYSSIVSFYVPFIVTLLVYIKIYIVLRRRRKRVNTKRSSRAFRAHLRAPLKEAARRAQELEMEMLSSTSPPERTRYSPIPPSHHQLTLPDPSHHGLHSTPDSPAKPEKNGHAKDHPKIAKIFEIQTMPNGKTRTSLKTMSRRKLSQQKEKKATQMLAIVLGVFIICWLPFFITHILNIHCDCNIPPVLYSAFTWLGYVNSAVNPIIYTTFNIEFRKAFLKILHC
The data set is described as follows: Dopamine D2 receptor binding assay ([125I]iodospiperone). The note with it: [125I]iodospiperone 0.1 nM, D2 receptor membranes, 2 hours at room temperature; read-out: Relative D2 Receptor Binding Affinity Ki. As for the experimental part:
Serotonin 5-HT6 and Dopamine D2 Binding Assay Protocol
The assay buffers used are 50 mM Tris-HCl pH 7.4, 120 mM NaCl, 5 mM KCl, 5 mM MgCl2, 1 mM EDTA for the Dopamine D2s receptor binding assay. […] The membranes used are from Receptor Biology (now owned by NEN), Cat #RBHD2CM for the D2 receptor.
Compounds are obtained as 10 mM stocks in 100% DMSO. They are diluted to 1 mM in 100% DMSO by adding 180 μL DMSO to 20 μL of stock in 96 well plates using a multidrop. […] This is done using a TECAN robot.
The radioligand is diluted in assay buffer to provide 0.1 nM for the D2 assay. Each vial of membranes is diluted up to 92 mL in assay buffer. The final assay volume is 250 μL consisting of 210 μl of diluted membranes, 20 μL of compound or 10% DMSO for total binding, and 20 μL of diluted radioligand. The compounds are transferred from drug dilution plates into coming 96 well assay plates using a 96 well Multimek pipettor. Radioligand and membranes are added to assay plates using multidrop pipettors. Non-specific binding is determined in wells containing a final concentration of 5 μM haloperidol. The final drug concentration range in half logs is from 10 μM down to 0.1 nM.
After addition of drug, membrane, and ligand, the plates are incubated for 2 hours at room temperature. During this time 96 well Millipore filter plates (MAFBNOB50) are soaked for a least 30 minutes with 200 μL per well of 0.5% polyethyleneimine.
The 0.5% PEI is removed from filterplate wells using a TiterTek MAP aspirator and 200 μL of the incubation mixture is transferred from the incubation plate to the filterplate after mixing. This transfer is done using the 96 tip Mutimek pipettor. After transfer to the filterplate filterplates are extracted and ished twice with 220 μL per well of cold buffer on the MAP aspirator. The peel away bottoms are removed from the filterplates and 60 μL per well of microscint 20 scintillation fluid is added per well using a multidrop. Plates are placed into suitable holders and are left at room temperature for 3 hours and are counted for ^3H in either a Wallac Microbeta counter or on a Packard Topcount.

In general, Ki refers to a dissociation constant, usually derived from enzyme kinetics or from competition with a known ligand. The term melting point denotes the temperature, or range, at which the solid turns liquid. With `Cc1cc2c(s1)Nc1ccccc1N=C2N1CCN[C@@H](CCc2ccccc2)C1` [Example 59, 2-Methyl-10-(S)-(3-phenethyl-piperazin-1-yl)-4H-3-thia-4,9-diazabenzo[f]azulene], the melting point was 75 to 84 °C. Further, the Ki on Dopamine D2 receptor lay within 0.01 to 0.1 µM.

In turn, `Cc1cc2c(s1)Nc1ccccc1N=C2N1CCN[C@@H](Cc2ccccc2)C1` [Example 61] came in with a melting point of 169 to 170 °C. Moreover, the Ki at Dopamine D2 receptor was below 0.01 µM.

Consider `Cc1ccc(C[C@H]2CN(C3=Nc4ccccc4Nc4sc(C)cc43)CCN2)cc1` [Example 69], for which the melting point is 92 to 101 °C. Moreover, on Dopamine D2 receptor, the Ki fell in the range of 0.01 to 0.1 µM.

`Cc1cccc(C[C@H]2CN(C3=Nc4ccccc4Nc4sc(C)cc43)CCN2)c1` [Example 70] registered a melting point of 80 to 97 °C. For the same compound, the Ki on Dopamine D2 receptor is below 0.01 µM.

As for `Cc1cc2c(s1)Nc1ccccc1N=C2N1CCN[C@@H](Cc2ccccc2F)C1` [Example 71], the melting point fell in the range of 84 to 102 °C. Moreover, the inhibition constant Ki on Dopamine D2 receptor was below 0.01 µM.

The compound `Cc1cc2c(s1)Nc1ccccc1N=C2N1CCN[C@@H](Cc2cccc(F)c2)C1` [Example 72] came in with a melting point of 87 to 99 °C. Besides, the Ki at Dopamine D2 receptor was in the range of 0.01 to 0.1 µM.

`COc1ccccc1C[C@H]1CN(C2=Nc3ccccc3Nc3sc(C)cc32)CCN1` [Example 75]: the melting point fell in the range of 95 to 109 °C. In addition, on Dopamine D2 receptor, the Ki is below 0.01 µM.

`COc1cccc(C[C@H]2CN(C3=Nc4ccccc4Nc4sc(C)cc43)CCN2)c1` [Example 76]: the melting point was 96 to 109 °C. Moreover, the Ki on Dopamine D2 receptor is below 0.01 µM.

`COc1ccc(C[C@H]2CN(C3=Nc4ccccc4Nc4sc(C)cc43)CCN2)cc1` [Example 77] returned a melting point of 85 to 98 °C. Moreover, on Dopamine D2 receptor, the Ki lay in the range of 0.01 to 0.1 µM.

As for `Cc1cc2c(s1)Nc1ccccc1N=C2N1CCN[C@@H](Cc2cccs2)C1` [Example 80], the melting point lay in the range of 95 to 104 °C. In addition, the Ki at Dopamine D2 receptor was below 0.01 µM.

On to `Cc1cc2c(s1)Nc1ccccc1N=C2N1CCN[C@@H](Cc2ccc(Cl)cc2)C1` [Example 85], for which the melting point lay in the range of 91 to 108 °C. Besides, the inhibition constant Ki at Dopamine D2 receptor is below 0.01 µM.

Consider `Cc1cc2c(s1)Nc1ccccc1N=C2N1CCN[C@@H](Cc2cccc(Cl)c2)C1` [Example 87], for which, at Dopamine D2 receptor, the Ki is 0.01 to 0.1 µM.

Consider `Cc1cc2c(s1)Nc1ccccc1N=C2N1CCN[C@@H](Cc2cc(F)cc(F)c2)C1` [Example 88], for which, on Dopamine D2 receptor, the inhibition constant (Ki) is below 0.01 µM.

`Cc1cc2c(s1)Nc1ccccc1N=C2N1CCN(C)[C@@H](CCc2ccccc2)C1` [Example 90, 2-Methyl-10-(4-methyl-3-(S)-phenethyl-piperazin-1-yl)-4H-3-thia-4,9-diaza-benzo[f]azulene] gave a melting point of 87 to 91 °C. Moreover, on Dopamine D2 receptor, the Ki fell in the range of 0.01 to 0.1 µM.

As to `Cc1cc2c(s1)Nc1ccccc1N=C2N1CCN(C)[C@@H](Cc2ccccc2)C1` [Example 92], the melting point was 94 to 97 °C. Further, the Ki at Dopamine D2 receptor lay within 0.01 to 0.1 µM.

Consider `Cc1cc2c(s1)Nc1ccccc1N=C2N1CCN(C)[C@@H](Cc2cccc(Cl)c2)C1` [Example 119], for which the Ki at Dopamine D2 receptor is 0.01 to 0.1 µM.

On to `Cc1cc2c(s1)Nc1ccccc1N=C2N1CCN[C@@H](CCc2ccc(F)cc2)C1` [Example 176, 10-((S)-3-(2-(4-Fluorophenyl)-ethyl)-piperazin-1-yl)-2-methyl-4H-3-thia-4,9-diaza-benzo[f]azulene dihydrochloride], for which the Ki at Dopamine D2 receptor was in the range of 0.01 to 0.1 µM.

Consider `Cc1cc2c(s1)Nc1ccccc1N=C2N1CCN[C@@H](CCc2cccc(F)c2)C1` [Example 177, 10-((S)-3-(2-(3-Fluoro-phenyl)-ethyl)-piperazin-1-yl))-2-methyl-4H-3-thia-4,9-diaza-benzo[f]azulene dihydrochloride], for which the Ki at Dopamine D2 receptor was in the range of 0.01 to 0.1 µM.

On to `Cc1cc2c(s1)Nc1ccccc1N=C2N1CCN[C@@H](CCc2ccccc2F)C1` [Example 178, 10-((S)-3-(2-(2-Fluoro-phenyl)-ethyl)-piperazin-1-yl)-2-methyl-4H-3-thia-4,9-diaza-benzo[f]azulene dihydrochloride], for which the Ki on Dopamine D2 receptor fell in the range of 0.01 to 0.1 µM.

As to `COc1ccc(CC[C@H]2CN(C3=Nc4ccccc4Nc4sc(C)cc43)CCN2)cc1` [Example 179, 10-((S)-3-(2-(4-methoxy-phenyl)-ethyl)-piperazin-1-yl)-2-methyl-4H-3-thia-4,9-diaza-benzo[f]azulene dihydrochloride], the Ki at Dopamine D2 receptor was below 0.01 µM.

Regarding `COc1cccc(CC[C@H]2CN(C3=Nc4ccccc4Nc4sc(C)cc43)CCN2)c1` [Example 180, 10-((S)-3-(2-(3-Methoxy-phenyl)-ethyl)-piperazin-1-yl)-2-methyl-4H-3-thia-4,9-diaza-benzo[f]azulene dihydrochloride], the inhibitory constant (Ki) at Dopamine D2 receptor was below 0.01 µM.

In the case of `COc1ccccc1CC[C@H]1CN(C2=Nc3ccccc3Nc3sc(C)cc32)CCN1` [Example 181, 10-((S)-3-(2-(2-Methoxy-phenyl)-ethyl)-piperazin-1-yl)-2-methyl-4H-3-thia-4,9-diaza-benzo[f]azulene dihydrochloride], the Ki at Dopamine D2 receptor fell in the range of 0.01 to 0.1 µM.

On to `Cc1cc2c(s1)Nc1ccccc1N=C2N1CCN(C)[C@@H](CCc2ccc(F)cc2)C1` [Example 182, 10-((S)-3-(2-(4-Fluoro-phenyl)-ethyl]-4-methyl-piperazin-1-yl)-2-methyl-4H-3-thia-4,9-diaza-benzo[f]azulene dihydrochloride], for which, on Dopamine D2 receptor, the Ki fell in the range of 0.01 to 0.1 µM.

Take `Cc1cc2c(s1)Nc1ccccc1N=C2N1CCN(C)[C@@H](CCc2cccc(F)c2)C1` [Example 183, 10-((S)-3-(2-(3-Fluoro-phenyl)-ethyl)-4-methyl-piperazin-1-yl)-2-methyl-4H-3-thia-4,9-diaza-benzo[f]azulene dihydrochloride]: the Ki on Dopamine D2 receptor is 0.01 to 0.1 µM.

For the compound `Cc1cc2c(s1)Nc1ccccc1N=C2N1CCN(C)[C@@H](CCc2ccccc2F)C1` [Example 184, 10-((S)-3-(2-(2-Fluoro-phenyl)-ethyl)-4-methyl-piperazin-1-yl)-2-methyl-4H-3-thia-4,9-diaza-benzo[f]azulene dihydrochloride], the Ki at Dopamine D2 receptor fell in the range of 0.01 to 0.1 µM.

On to `COc1ccc(CC[C@H]2CN(C3=Nc4ccccc4Nc4sc(C)cc43)CCN2C)cc1` [Example 185, 10-((S)-3-(2-(4-Methoxy-phenyl)-ethyl)-4-methyl-piperazin-1-yl)-2-methyl-4H-3-thia-4,9-diaza-benzo[f]azulene dihydrochloride], for which the Ki on Dopamine D2 receptor fell in the range of 0.01 to 0.1 µM.

For the compound `COc1cccc(CC[C@H]2CN(C3=Nc4ccccc4Nc4sc(C)cc43)CCN2C)c1` [Example 186, 10-((S)-3-(2-(3-Methoxy-phenyl)-ethyl)-4-methyl-piperazin-1-yl)-2-methyl-4H-3-thia-4.9-diaza-benzo[f]azulene dihydrochloride], at Dopamine D2 receptor, the Ki was below 0.01 µM.

`COc1ccccc1CC[C@H]1CN(C2=Nc3ccccc3Nc3sc(C)cc32)CCN1C` [Example 187, 10-((S)-3-(2-(2-Methoxy-phenyl)-ethyl)-4-methyl-piperazin-1-yl)-2-methyl-4H-3-thia-4,9-diaza-benzo[f]azulene dihydrochloride]: the Ki at Dopamine D2 receptor is 0.01 to 0.1 µM.

Consider `Cc1cc2c(s1)Nc1ccccc1N=C2N1CCN[C@@H](CCCCc2ccccc2)C1` [Example 194], for which, at Dopamine D2 receptor, the Ki is below 0.01 µM.

On to `Cc1cc2c(s1)Nc1ccccc1N=C2N1CCN(C)[C@@H](CCCCc2ccccc2)C1` [Example 195, (S)-2-Methyl-10-(3-(4-phenyl-butyl)-4-methyl-piperazin-1-yl)-4H-3-thia-4,9-diaza-benzo[f]azulene, dihydrochloric acid], for which the Ki on Dopamine D2 receptor lay within 0.01 to 0.1 µM.

Take `Cc1nc2c(s1)Nc1ccccc1N=C2N1CCN[C@@H](CCc2ccccc2)C1` [Example 460, (S)-2-Methyl-10-(3-phenethyl-piperazin-1-yl)-4H-3-thia-1,4,9-triaza-benzo[f]azulene dihydrochloride hemihydrate]: on Dopamine D2 receptor, the Ki was below 0.01 µM.

`Cc1nc2c(s1)Nc1ccccc1N=C2N1CCN(C)[C@@H](CCc2ccccc2)C1` [Example 461, (S)-2-Methyl-10-(4-methyl-3-phenethyl-piperazin-1-yl)-4H-3-thia-1,4,9-triaza-benzo[f]azulene dihydrochloride hemihydrate]: on Dopamine D2 receptor, the Ki was in the range of 0.01 to 0.1 µM.

On to `CC(C)n1nc2c(n1)C(N1CCN[C@@H](CCc3ccccc3)C1)=Nc1ccccc1N2` [Example 594, (S)-2-Isopropyl-10-(3-phenethyl-piperazin-1-yl)-2,4-dihydro-1,2,3,4.9-pentaaza-benzo[f]azulene dihydrochloride hemihydrate], for which, at Dopamine D2 receptor, the Ki was below 0.01 µM.

On to `CC(C)n1nc2c(n1)C(N1CCN(C)[C@@H](CCc3ccccc3)C1)=Nc1ccccc1N2` [Example 595, (S)-2-Isopropyl-10-(4-methyl-3-phenethyl-piperazin-1-yl)-2,4-dihydro-1,2,3,4,9-pentaaza-benzo[f]azulene dihydrochloride hemihydrate], for which the Ki on Dopamine D2 receptor lay within 0.01 to 0.1 µM.
